PMC7815716, “Mechanistic basis of breast cancer resistance protein inhibition by new indeno[1,2-b]indoles” (Scientific Reports, 2021)
Entries after “also recorded” stand apart in the source; their conditions may differ. Read-outs that look alike come from different tables or passages of the source.

Tests used:
HEK293-ABCG2 cells = test: Sensitization of ABCG2-transfected cells to SN-38, MTT assay; format: cell-based, human; conditions: for FR, fold reversal: vs HEK293 WT; for Chemosensitization to SN-38: HEK293-ABCG2, 72 h co-treatment, IC50 value or 5 µM
Protocol: Cell viability was evaluated with a 3-(4,5-dimethylthiazol-2-yl)-2,5-diphenyltetrazolium bromide (MTT) colorimetric assay. HEK293 WT and HEK293-ABCG2 cells were seeded into 96-well culture plates at a 1.5 × 10^4 cells/well density. After overnight incubation, the cells were treated with various concentrations of compounds (0–100 µM) for 72 h at 37 °C under 5% CO2. […] Sensitization experiments were also carried out on H460 and H460MX20 cells. For these experiments, H460 and H460MX20 cells were seeded into 96-well culture plates at 1.0 × 10^4 cells/well density. […] After the treatment, the culture medium was removed and 100 μL of a 0.5 mg.mL^−1 MTT solution was added. Cells were then incubated for 4 h at 37 °C under 5% CO2. The formazan crystals were dissolved with a solution of DMSO/ethanol (1:1) and the absorbance was measured at 570 nm using a Multiscan FC microplate reader (Thermo Scientific). The results were expressed as percentage of viable cells versus control cells (0.1% DMSO, v/v) taken as 100%.

ABCC1 (MRP1) = molecular target: T1, ABCC1 (MRP1) (Homo sapiens, UniProt P33527); test: ABCC1 (MRP1) calcein-AM transport inhibition in BHK21-ABCC1 cells; format: cell-based; conditions: 1 and 10 µM; for Inhibition of MRP1-mediated transport: calcein-AM
T1 construct: expressed in transfected cells; host or cells: BHK21
Protocol: (§1) ABCG2 inhibition assays were carried out on HEK293 WT and HEK293-ABCG2 cells. Cells were seeded at the density of 1 × 10^5 cells/well in 24 well culture plates and incubated for 48 h at 37 °C under 5% CO2. Cells were treated with compounds and 10 μM of mitoxantrone for 30 min at 37 °C and 5% CO2. After incubation the cells were washed with PBS, trypsinized and resuspended in ice cold PBS. The intracellular drug fluorescence was monitored with a FACS Calibur cytometer (Becton Dickinson) using the FL4 channel, with at least 10,000 events collected. The maximal fluorescence (taken as 100%) was determined with the difference between the mean fluorescence of HEK-ABCG2 cells incubated with 0.5 μM Ko143 (ABCG2 reference inhibitor) or by using the HEK293 WT cell line as a control and cells without inhibitor (mitoxantrone alone). The percent of inhibition was determined as previously described. For bimodulation assays the cells were concomitantly treated with 10 μM of one or two combined inhibitors under similar conditions as described previously. For washing assays, cells were treated with 10 μM concentrations of compounds for 30 min. Then, the medium with the inhibitor was removed and the cells were washed with PBS and incubated only with culture medium for different periods of time (0.5 and 3 h). After incubation, cells were exposed to 5 µM mitoxantrone for 30 min, and then analyzed by flow cytometry. The percentage of transport inhibition was calculated by the following equation: %Inhibition=C-S/I-S×100 where “C” corresponds to the intracellular fluorescence of cells in the presence of the tested compounds and substrate (mitoxantrone to ABCG2, Rhodamine 123 to ABCB1 and calcein to ABCC1), “S” corresponds to the intracellular fluorescence of cells in the presence of substrate alone, and “I” corresponds to the intracellular fluorescence of cells in the presence of the substrate and reference inhibitor (Ko143 to ABCG2, GF120918 to ABCB1 and verapamil to ABCC1).
ABCB1 (P-gp) and ABCC1 (MRP1) inhibition assays were carried out on NIH3T3 WT and NIH3T3-ABCB1 or BHK21 WT and BHK21-ABCC1 cell lines. Cells were treated with 5 μM rhodamine 123 or 0.2 μM calcein-AM as substrates, and with or without GF120918 (0.5 μM) or verapamil (30 μM) as reference inhibitors, for ABCB1 and ABCC1, respectively. Compounds were assayed at 1 and 10 µM. The same procedure and calculation to determine the percentage of inhibition were used for ABCG2 inhibition assays. The intracellular fluorescence was monitored with a FACS Calibur cytometer (Becton Dickinson) using the FL1 channel.

ABCG2 = molecular target: T2, ABCG2 (Homo sapiens, UniProt Q9UNQ0); test: Inhibition of ABCG2-mediated mitoxantrone efflux (flow cytometry); format: cell-based; set-up: expressed in transfected cells; host or cells: HEK293; conditions: for inhibition at 30 min: human, probe mitoxantrone (10 µM), from IC50 fitted curves, HEK293-ABCG2, mitoxantrone, 100% = Ko143 0.5 µM, read-out: IMAX (%) ± SD, maximal inhibition percentage; for Class of inhibitor by IMAX (complete or partial): threshold at 80% on IMAX values
T2 sequence (Q9UNQ0 1-655): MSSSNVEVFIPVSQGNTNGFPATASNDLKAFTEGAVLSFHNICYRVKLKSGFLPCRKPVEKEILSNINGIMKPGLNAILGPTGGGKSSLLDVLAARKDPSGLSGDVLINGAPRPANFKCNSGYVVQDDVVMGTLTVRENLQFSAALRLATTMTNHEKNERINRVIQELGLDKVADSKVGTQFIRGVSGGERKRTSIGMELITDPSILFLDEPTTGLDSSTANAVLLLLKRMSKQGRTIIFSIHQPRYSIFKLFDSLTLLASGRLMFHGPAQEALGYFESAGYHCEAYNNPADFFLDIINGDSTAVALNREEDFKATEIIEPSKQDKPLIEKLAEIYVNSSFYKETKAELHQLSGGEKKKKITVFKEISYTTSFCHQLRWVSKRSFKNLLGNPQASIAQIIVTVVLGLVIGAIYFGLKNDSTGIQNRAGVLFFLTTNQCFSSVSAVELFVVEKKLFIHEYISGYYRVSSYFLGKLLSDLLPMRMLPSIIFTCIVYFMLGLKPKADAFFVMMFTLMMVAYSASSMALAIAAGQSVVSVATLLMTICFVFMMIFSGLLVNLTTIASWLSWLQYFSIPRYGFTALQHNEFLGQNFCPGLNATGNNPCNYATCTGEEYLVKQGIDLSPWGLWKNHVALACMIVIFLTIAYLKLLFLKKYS
Protocol: as §1

[1] = HEK293-ABCG2, SN-38 + inhibitor at 5 µM
[2] = HEK293-ABCG2, SN-38 + inhibitor at its IC50 value

T1 sequence (P33527 whole entry): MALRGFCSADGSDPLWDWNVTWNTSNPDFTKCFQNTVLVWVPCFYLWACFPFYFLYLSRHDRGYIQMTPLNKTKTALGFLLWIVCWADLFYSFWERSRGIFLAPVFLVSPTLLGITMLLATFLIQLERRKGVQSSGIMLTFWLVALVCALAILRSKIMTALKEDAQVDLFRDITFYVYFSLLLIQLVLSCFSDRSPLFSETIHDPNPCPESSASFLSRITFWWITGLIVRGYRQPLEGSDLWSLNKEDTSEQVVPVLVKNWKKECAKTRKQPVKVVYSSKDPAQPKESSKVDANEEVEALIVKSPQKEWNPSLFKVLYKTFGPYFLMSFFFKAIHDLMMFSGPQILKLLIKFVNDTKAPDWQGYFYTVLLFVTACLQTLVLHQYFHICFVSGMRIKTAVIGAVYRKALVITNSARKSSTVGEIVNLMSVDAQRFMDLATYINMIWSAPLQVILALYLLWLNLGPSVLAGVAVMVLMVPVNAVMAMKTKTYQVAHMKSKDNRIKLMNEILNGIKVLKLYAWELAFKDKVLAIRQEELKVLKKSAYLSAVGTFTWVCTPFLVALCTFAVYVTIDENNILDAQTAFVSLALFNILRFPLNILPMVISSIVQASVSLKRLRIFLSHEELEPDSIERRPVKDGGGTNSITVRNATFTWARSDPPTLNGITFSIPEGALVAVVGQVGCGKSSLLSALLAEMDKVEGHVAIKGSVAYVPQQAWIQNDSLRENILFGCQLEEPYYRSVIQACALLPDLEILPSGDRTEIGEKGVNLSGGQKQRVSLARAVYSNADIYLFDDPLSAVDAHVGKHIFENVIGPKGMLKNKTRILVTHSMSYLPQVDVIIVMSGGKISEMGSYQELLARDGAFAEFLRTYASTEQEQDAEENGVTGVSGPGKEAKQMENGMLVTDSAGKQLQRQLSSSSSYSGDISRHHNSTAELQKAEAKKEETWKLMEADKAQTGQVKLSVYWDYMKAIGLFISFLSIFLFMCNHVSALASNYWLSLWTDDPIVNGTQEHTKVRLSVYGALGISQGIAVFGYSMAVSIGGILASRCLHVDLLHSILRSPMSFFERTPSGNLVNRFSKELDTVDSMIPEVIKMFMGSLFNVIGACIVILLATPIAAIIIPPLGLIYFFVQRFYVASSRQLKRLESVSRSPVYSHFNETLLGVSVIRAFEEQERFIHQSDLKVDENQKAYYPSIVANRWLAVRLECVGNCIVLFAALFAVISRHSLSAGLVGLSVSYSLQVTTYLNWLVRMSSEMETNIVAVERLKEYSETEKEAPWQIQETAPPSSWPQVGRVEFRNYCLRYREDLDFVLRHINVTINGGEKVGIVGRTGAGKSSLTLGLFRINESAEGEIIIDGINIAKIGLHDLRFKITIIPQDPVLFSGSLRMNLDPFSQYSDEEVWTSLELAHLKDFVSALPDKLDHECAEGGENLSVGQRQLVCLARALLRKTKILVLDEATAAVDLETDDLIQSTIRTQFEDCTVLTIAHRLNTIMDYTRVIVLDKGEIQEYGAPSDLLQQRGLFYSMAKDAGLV

| Structure (SMILES) | FR, fold reversal (HEK293-ABCG2 cells; [1]) | FR, fold reversal (HEK293-ABCG2 cells; [2]) | Inhibition of MRP1-mediated transport (ABCC1 (MRP1)) | melting point | IC50 (ABCG2) | inhibition at 30 min (ABCG2; HEK293-ABCG2 cells) | Chemosensitization to SN-38 (HEK293-ABCG2 cells) | IC50 (ABCG2; HEK293-ABCG2 cells, mitoxantrone 10 µM, 30 min, read-out: IC50 (µM) ± SD, inhibition of ABCG2-mediated mitoxantrone efflux) | Class of inhibitor by IMAX (complete or partial) (ABCG2) | Selectivity toward ABCG2 versus P-gp and MRP1 (ABCC1 (MRP1)) |
| --- | --- | --- | --- | --- | --- | --- | --- | --- | --- | --- |
| COc1ccc2[nH]cc(CCn3c4c(c5c(O)cccc53)C(=O)c3ccccc3-4)c2c1 [6c, 9-Hydroxy-5-(2-(5-methoxy-1H-indol-3-yl)ethyl)indeno[1,2-b]indol-10(5H)-one] | 0.37 | 1.13 | partially inhibited | 95 °C | 0.48 ± 0.1 µM | 90.5 ± 8.07% | – | – | – | – |
| COc1cccc(CCn2c3c(c4c(O)cccc42)C(=O)c2ccc(O)cc2-3)c1 [6d, 3,9-Dihydroxy-5-(3-methoxyphenethyl)indeno[1,2-b]indol-10(5H)-one] | 0.64 | 12.48 | partially inhibited | 198 °C | 0.19 ± 0.04 µM | 84.8 ± 2.51% | – | – | – | – |
| COc1cc2c(cc1OC)-c1c(c3c(n1CCc1ccccc1)CC(C)CC3=O)C2=O (stereo not drawn) [5e, 2,3-Dimethoxy-7-methyl-5-phenethyl-5,6,7,8-tetrahydroindeno[1,2-b]indole-9,10-dione] | 3.08 | 9.51 | partially inhibited | 235 °C | – | 36.9 ± 1.16% | efficiently chemosensitize | 0.15 ± 0.08 µM | partial (partial (IMAX ≤ 80% of ABCG2 inhibition)) | – |
| COc1ccccc1CCn1c2c(c3c(O)cc(C)cc31)C(=O)c1ccccc1-2 [6a, 9-Hydroxy-7-methyl-5-(2-methoxyphenethyl)-5H-indeno[1,2-b]indol-10(5H)-one] | 0.47 | 0.82 | – | – | 0.21 ± 0.03 µM | 62.6 ± 2.3% | efficiently chemosensitize | – | partial (partial (IMAX ≤ 80% of ABCG2 inhibition)) | specific ABCG2 inhibitor; also recorded: completely selective to ABCG2 |
